Data as given in US11297839B2, “Stable compositions of uncomplexed iodine and methods of use” (ioTech International, Inc., priority 2014, dated 2022).

assay: Compatibility of surface active agents with molecular iodine base composition; assay type: physicochemical; settings: 985 micromolar molecular iodine base with n-propanol, peracetic acid, hydrogen peroxide, iodate, citric acid; 37 degrees centigrade 6 weeks
Experimental: A further objective of this invention was to incorporate surface active agents in the compositions contemplated in this application to enhance the cleaning and wetting properties of said compositions. A series of surface active agents were screened to insure their compatibility with the molecular iodine based composition contemplated in this application. A 985 micromolar concentration of molecular iodine was prepared by dissolving elemental iodine crystals in a sealed glass volumetric flask containing the base composition. […] Samples of the following surface active agents or classes of surface active agents were obtained from various manufacturers and evaluated for compatibility with molecular iodine.

Compound	compatibility of surface active agent with molecular iodine composition
CCCCCCCC(=O)O [capryllic acid]	compatible at all concentrations tested
CCCCCCCCCCCC(=O)OCC(O)CO (stereo not shown) [dodecanoic acid 2,3-dihydroxypropyl ester]	compatible at all concentrations tested
CCCCCCCCC(=O)OCC(O)CO (stereo not shown) [nonanoic acid 2,3-dihydroxypropyl ester]	compatible at all concentrations tested
nonylphenoxypolyethyleneoxy ethanol sulfate	compatible at all concentrations tested

assay: Compatibility of biocides with 300 ppm molecular iodine base composition; settings: biocide added at increasing concentrations to 300 ppm molecular iodine base, iodate excess 2; 6 weeks

Compound	compatibility with molecular iodine (colour, thiosulfate titratable iodine)
CCCO [Formulation 1-propanol, 1-propanol]	did not reduce thiosulfate titratable iodine
CC(C)O [Formulation 2-propanol, 2-propanol]	did not reduce thiosulfate titratable iodine
CCO [ethanol]	did not reduce thiosulfate titratable iodine
OO [hydrogen peroxide]	did not reduce thiosulfate titratable iodine
CCCCCCCC(=O)O [octanoic acid]	did not reduce thiosulfate titratable iodine
CC(=O)OO [peracetic acid]	did not reduce thiosulfate titratable iodine
